# US20090069320A1, “Substituted 4-Amino-Quinazoline Compounds with Metabotropic Glutamate Receptor Regulating Activity and Uses Thereof” (Gruenenthal GmbH, priority 2006, published 2009)
# Biological target: T1, mGluR5 receptor (Sus scrofa, UniProt I3LUI7)
# T1 construct: 450 μg of protein from brain homogenate with 5 nM ^3[H]-MPEP; from tissue; host or cells: pig brain halves without medulla, cerebellum and pons
# Assay: [3H]-MPEP mGluR5 receptor binding assay (pig brain homogenate)
# Details: 5 nM [3H]-MPEP, read-out: IC50 mGluR5 Receptor (pig) [^3H]-MPEP Bond
# Outline: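 Radioligand displacement of 5 nM [3H]-MPEP from pig brain homogenate (450 μg protein; medulla, cerebellum and pons removed) in 20 mM Hepes pH 8.0. Compounds were tested at 10 μM, incubated 60 min at room temperature, then filtered and counted by scintillation. Non-specific binding was defined with 10 μM MPEP.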
# T1 sequence (I3LUI7 19-1212): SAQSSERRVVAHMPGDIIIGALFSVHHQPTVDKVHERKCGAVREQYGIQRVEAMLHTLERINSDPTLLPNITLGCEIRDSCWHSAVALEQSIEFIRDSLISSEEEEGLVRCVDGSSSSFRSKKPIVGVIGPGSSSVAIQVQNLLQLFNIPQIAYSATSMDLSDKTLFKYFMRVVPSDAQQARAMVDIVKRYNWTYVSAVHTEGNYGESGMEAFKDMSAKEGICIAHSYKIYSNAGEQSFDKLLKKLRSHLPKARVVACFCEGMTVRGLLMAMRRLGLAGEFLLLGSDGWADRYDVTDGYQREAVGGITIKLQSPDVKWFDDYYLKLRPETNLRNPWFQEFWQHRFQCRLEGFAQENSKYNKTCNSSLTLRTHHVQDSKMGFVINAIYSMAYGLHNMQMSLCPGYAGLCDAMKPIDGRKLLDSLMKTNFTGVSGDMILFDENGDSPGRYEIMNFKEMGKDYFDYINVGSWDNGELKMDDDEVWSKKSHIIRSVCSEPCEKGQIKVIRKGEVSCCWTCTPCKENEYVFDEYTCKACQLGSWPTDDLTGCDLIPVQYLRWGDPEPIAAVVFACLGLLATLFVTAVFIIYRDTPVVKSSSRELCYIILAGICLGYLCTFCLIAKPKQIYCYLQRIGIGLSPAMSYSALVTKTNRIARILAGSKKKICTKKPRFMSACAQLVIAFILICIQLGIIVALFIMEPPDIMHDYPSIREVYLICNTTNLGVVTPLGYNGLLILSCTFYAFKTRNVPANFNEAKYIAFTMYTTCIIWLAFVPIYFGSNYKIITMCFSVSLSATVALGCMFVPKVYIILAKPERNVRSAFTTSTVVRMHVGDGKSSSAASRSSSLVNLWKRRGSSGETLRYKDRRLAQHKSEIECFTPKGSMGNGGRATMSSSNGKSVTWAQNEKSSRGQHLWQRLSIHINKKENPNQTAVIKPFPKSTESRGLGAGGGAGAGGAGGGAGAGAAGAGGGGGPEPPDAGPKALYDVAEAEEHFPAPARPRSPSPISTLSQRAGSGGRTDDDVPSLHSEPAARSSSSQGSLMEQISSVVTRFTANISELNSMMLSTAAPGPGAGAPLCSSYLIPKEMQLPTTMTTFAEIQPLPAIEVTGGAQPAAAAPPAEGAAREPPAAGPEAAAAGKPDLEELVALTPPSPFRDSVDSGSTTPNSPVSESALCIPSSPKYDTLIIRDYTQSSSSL
row,IC50,Compound
1,5410 nM,"COc1ccc(CN(C(=O)c2ccccc2)C2CC2)cc1-c1ccc2ncnc(NC3CC3)c2c1 [Example 268, N-cyclopropyl-N-(3-(4-(cyclopropylamino)quinazolin-6-yl)-4-methoxybenzyl)benzamide]"
2,290 nM,"O=C(CCl)N(Cc1cc(-c2ccc3ncnc(NC4CC4)c3c2)ccc1F)C1CC1 [Example 283, 2-chloro-N-cyclopropyl-N-(5-(4-(cyclopropylamino)quinazolin-6-yl)-2-fluorobenzyl)acetamide]"
3,860 nM,"O=C(c1ccccc1)N(Cc1cccc(-c2ccc3ncnc(NC4CC4)c3c2)c1)C1CC1 [Example 274, N-cyclopropyl-N-(3-(4-(cyclopropylamino)quinazolin-6-yl)benzyl)benzamide]"
4,3150 nM,"O=C(c1cccnc1)N(Cc1cccc(-c2ccc3ncnc(NC4CC4)c3c2)c1)C1CC1 [Example 248, N-cyclopropyl-N-[3-(4-cyclopropylamino-quinazolin-6-yl)-benzyl]-nicotinamide]"

# Same assay, conditions: 10 μM compound, 5 nM [3H]-MPEP
row,Compound,% Inhibition of mGluR5 Receptor (pig) [^3H]-MPEP Bond at 10 μM
1,"CC(C)S(=O)(=O)N(Cc1cc(-c2ccc3ncnc(NC(C)(C)C)c3c2)ccc1F)C1CC1 [Example 822, N-(5-(4-(tert-butylamino)quinazolin-6-yl)-2-fluorobenzyl)-N-cyclopropyl propane-2-sulfonamide]",86%
2,"O=S(=O)(c1ccc(Cl)cc1Cl)N(Cc1cc(-c2ccc3ncnc(NC4CC4)c3c2)ccc1F)C1CC1 [Example 391, 2,4-dichloro-N-cyclopropyl-N-(5-(4-(cyclopropylamino)quinazolin-6-yl)-2-fluorobenzyl)benzole sulfonamide]",74%

# Results, then the molecule that gave them:
row,% Inhibition of mGluR5 Receptor (pig) [^3H]-MPEP Bond at 10 μM,Compound
1,48%,"CC(C)(C)Nc1ncnc2ccc(-c3ccc(F)c(CN(C(=O)C4CCCCC4)C4CC4)c3)cc12 [Example 809, N-(5-(4-(tert-butylamino)quinazolin-6-yl)-2-fluorobenzyl)-N-cyclopropyl cyclohexane carboxamide]"
2,89%,"COc1ccc(S(=O)(=O)N(Cc2cc(-c3ccc4ncnc(NC5CC5)c4c3)ccn2)C2CC2)cc1 [Example 806, N-cyclopropyl-N-((4-(4-(cyclopropylamino)quinazolin-6-yl)pyridin-2-yl)methyl)-4-methoxybenzole sulfonamide]"
3,78%,"O=S(=O)(c1ccc(Cl)cc1Cl)N(Cc1cc(-c2ccc3ncnc(NC4CC4)c3c2)ccn1)C1CC1 [Example 796, 2,4-dichloro-N-cyclopropyl-N-((4-(4-(cyclopropylamino)quinazolin-6-yl)pyridin-2-yl)methyl)benzole sulfonamide]"
4,85%,"O=S(=O)(c1cccc(C(F)(F)F)c1)N(Cc1cc(-c2ccc3ncnc(NC4CC4)c3c2)ccn1)C1CC1 [Example 858, N-cyclopropyl-N-((4-(4-(cyclopropylamino)quinazolin-6-yl)pyridin-2-yl)methyl)-3-(trifluoromethyl)benzole sulfonamide]"
5,94%,"CCCCC(=O)N(Cc1cc(-c2ccc3ncnc(NC4CC4)c3c2)ccc1Cl)C1CC1 [Example 793, N-(2-chloro-5-(4-(cyclopropylamino)quinazolin-6-yl)benzyl)-N-cyclopropyl pentanamide]"
6,96%,"CC(C)(C)Nc1ncnc2ccc(-c3ccc(F)c(CN(C(=O)c4ccncc4)C4CC4)c3)cc12 [Example 832, N-(5-(4-(tert-butylamino)quinazolin-6-yl)-2-fluorobenzyl)-N-cyclopropyl isonicotinamide]"

# Same assay, conditions: 10 μM compound, 5 nM [3H]-MPEP, read-out: % Inhibition of mGluR5 Receptor (pig) [^3H]-MPEP Bond at 10 μM
row,Compound,inhibition at 10 µM
1,"COc1ccc(C(=O)N(Cc2cc(-c3ccc4ncnc(NC5CC5)c4c3)ccc2F)C2CC2)cc1OC [Example 366, N-cyclopropyl-N-(5-(4-(cyclopropylamino)quinazolin-6-yl)-2-fluorobenzyl)-3,4-dimethoxybenzamide]",90%
2,"N#CCC(=O)N(Cc1cccc(-c2ccc3ncnc(N4CCCC4)c3c2)c1)C1CC1 [Example 133, 2-cyano-N-cyclopropyl-N-[3-(4-pyrrolidin-1-yl-quinazolin-6-yl)-benzyl]-acetamide]",50%
3,"CN(C)CC(=O)N(Cc1cc(-c2ccc3ncnc(NC4CC4)c3c2)ccc1F)C1CC1 [Example 398, N-cyclopropyl-N-(5-(4-(cyclopropylamino)quinazolin-6-yl)-2-fluorobenzyl)-2-(dimethylamino)acetamide]",63%
4,"O=S(=O)(c1cccs1)N(Cc1cc(-c2ccc3ncnc(NC4CC4)c3c2)ccc1F)C1CC1 [Example 407, N-cyclopropyl-N-(5-(4-(cyclopropylamino)quinazolin-6-yl)-2-fluorobenzyl)thiophene-2-sulfonamide]",92%
5,"CCCN(Cc1cccc(-c2ccc3ncnc(Nc4ccccc4)c3c2)c1)C(=O)c1ccccn1 [Example 95, pyridine-2-carboxylic acid [3-(4-phenylamino-quinazolin-6-yl)-benzyl]-propyl-amide]",61%
6,"CCCN(Cc1cccc(-c2ccc3ncnc(Nc4ccccc4)c3c2)c1)C(=O)c1cnccn1 [Example 104, pyrazine-2-carboxylic acid [3-(4-phenylamino-quinazolin-6-yl)-benzyl]-propyl-amide]",48%
7,"CC(C)Nc1ncnc2ccc(-c3cccc(CN(Cc4ccccc4)C(=O)c4ccco4)c3)cc12 [Example 149, furan-2-carboxylic acid benzyl-[3-(4-isopropylamino-quinazolin-6-yl)-benzyl]-amide]",32%
8,"N#Cc1cccc(C(=O)N(Cc2cccc(-c3ccc4ncnc(NC5CC5)c4c3)c2)C2CC2)c1 [Example 176, 3-cyano-N-cyclopropyl-N-[3-(4-cyclopropylamino-quinazolin-6-yl)-benzyl]-benzamide]",76%
9,"O=C(c1ccncc1)N(Cc1cccc(-c2ccc3ncnc(NC4CC4)c3c2)c1)C1CC1 [Example 165, N-cyclopropyl-N-[3-(4-cyclopropylamino-quinazolin-6-yl)-benzyl]-isonicotinamide]",88%
10,"O=C(O)CCC(=O)NCc1cccc(-c2ccc3ncnc(Nc4ccccc4)c3c2)c1 [Example 329, 4-oxo-4-(3-(4-(phenylamino)quinazolin-6-yl)benzylamino)butyric acid]",57%
11,"O=C(c1ccccc1C(F)(F)F)N(Cc1cccc(-c2ccc3ncnc(NC4CC4)c3c2)c1)C1CC1 [Example 167, N-cyclopropyl-N-[3-(4-cyclopropylamino-quinazolin-6-yl)-benzyl]-2-trifluoromethyl-benzamide]",98%
12,"O=C(c1ccccc1O)N(Cc1cccc(-c2ccc3ncnc(NC4CC4)c3c2)c1)C1CC1 [Example 156, N-cyclopropyl-N-[3-(4-cyclopropylamino-quinazolin-6-yl)-benzyl]-2-hydroxy-benzamide]",90%
13,"O=C(c1ccccc1Br)N(Cc1cccc(-c2ccc3ncnc(N4CCCC4)c3c2)c1)C1CC1 [Example 122, 2-bromo-N-cyclopropyl-N-[3-(4-pyrrolidin-1-yl-quinazolin-6-yl)-benzyl]-benzamide]",37%

# Continued, values first:
row,inhibition at 10 µM,Compound
1,71%,"O=C(c1cccs1)N(Cc1cc(-c2ccc3ncnc(NC4CC4)c3c2)ccn1)C1CC1 [Example 811, N-cyclopropyl-N-((4-(4-(cyclopropylamino)quinazolin-6-yl)pyridin-2-yl)methyl)thiophene-2-carboxamide]"
2,92%,"O=C(c1c(F)c(F)c(F)c(F)c1F)N(Cc1cc(-c2ccc3ncnc(NC4CC4)c3c2)ccc1Cl)C1CC1 [Example 859, N-(2-chloro-5-(4-(cyclopropylamino)quinazolin-6-yl)benzyl)-N-cyclopropyl-2,3,4,5,6-pentafluorobenzamide]"
3,40%,"CNc1ncnc2ccc(-c3ccc(F)c(CN(C)C(=O)CN(C)C)c3)cc12 [Example 718, 2-(dimethylamino)-N-(2-fluoro-5-(4-(methylamino)quinazolin-6-yl)benzyl)-N-methylacetamide]"
4,58%,"O=C(C1CCCCC1)N(Cc1cc(-c2ccc3ncnc(NC4CC4)c3c2)ccn1)C1CC1 [Example 835, N-cyclopropyl-N-((4-(4-(cyclopropylamino)quinazolin-6-yl)pyridin-2-yl)methyl)cyclohexane carboxamide]"
5,42%,"COCC(=O)N(C)Cc1cc(-c2ccc3ncnc(NCc4ccccc4)c3c2)ccc1F [Example 557, N-(5-(4-(benzylamino)quinazolin-6-yl)-2-fluorobenzyl)-2-methoxy-N-methylacetamide]"
6,62%,"O=C(c1ccncc1)N(Cc1cc(-c2ccc3ncnc(NC4CC4)c3c2)ccn1)C1CC1 [Example 823, N-cyclopropyl-N-((4-(4-(cyclopropylamino)quinazolin-6-yl)pyridin-2-yl)methyl)isonicotinamide]"
7,90%,"Cc1cc2ncnc(NC3CC3)c2cc1-c1cccc(CN(C2CC2)S(C)(=O)=O)c1 [Example 697, N-cyclopropyl-N-(3-(4-(cyclopropylamino)-7-methylquinazolin-6-yl)benzyl)methane sulfonamide]"
8,66%,"Cc1nc(NC2CC2)c2cc(-c3cccc(CN(C(=O)Cc4ccccc4)C4CC4)c3)ccc2n1 [Example 544, N-cyclopropyl-N-(3-(4-(cyclopropylamino)-2-methylquinazolin-6-yl)benzyl)-2-phenylacetamide]"
9,36%,"O=C(Cc1ccccc1)N(Cc1cc(-c2ccc3ncnc(NC4CC4)c3c2)ccn1)C1CC1 [Example 841, N-cyclopropyl-N-((4-(4-(cyclopropylamino)quinazolin-6-yl)pyridin-2-yl)methyl)-2-phenylacetamide]"
